Experimental data published in paper PMC8907375, “Arylated analogues of cypronazole: fungicidal effect and activity on human fibroblasts. Docking analysis and molecular dynamics simulations” (Natural Products and Bioprospecting, 2022).
Converted amounts (≈) assume the structure as drawn. Like-named read-outs stand apart in the source and are kept apart here.

How the values were obtained:
[1] = test system: B. cinerea (isolated from grapes); experiment: In vitro antifungal activity, broth microdilution (MIC100); format: cell-based, Botrytis cinerea; conditions: for Fungicidal activity MIC100, BC / MIC100 (complete growth inhibition): 22 °C, total growth inhibition
Protocol: (§1) Fungal growth was assessed at six concentrations (3.1–100 μg/mL), using enriched Czapek broth in the presence of triazole 1-8 (Fig. 2). Each treatment was carried out in triplicate. The Minimum Inhibitory Concentration (MIC100) was determined and was defined as the minimum concentration required to inhibit the complete fungal growth inhibition under the conditions of the assay. Triadimefon (TDM) and cyproconazole (CPZ) were used as positive control. In order to evaluate the efficacy of the new compounds to control fungi affecting vineyards, imperfect fungi isolated from infected grapes from the province of San Juan in Argentina were employed. Significant differences were determined by t-Student hypothesis test p, at 95% confidence. In general, moderate to good activity was observed compared to the reference compounds as well as some selectivity against microorganisms.
(§2) The imperfect fungi used for the assays included Botrytis cinerea isolated from grapevine samples, Aspergillus fumigatus (ATTC 26934), A. niger (ATCC 9029), A. ustus (PN-S4), A. japonicus (M15C), A. terreus (M16C) and Fusarium oxysporum (M15-Pa) isolated from soil samples from the province of San Juan, Argentina. The microorganisms were grown on Czapek-yeast extract agar (CYA) prepared with yeast extract, K2HPO4, saccharose, agar, distilled water and enriched with a solution of mineral salts (NaNO3, KCl, MgSO4.7H2O and FeSO4.7 H2O). Inocula were adjusted to 1–5 × 10^4 colony forming units (CFU/ mL).
(§3) The minimum inhibitory concentration (MIC) of each compound was evaluated using broth microdilution techniques in 96-well microtiter plates according to the guidelines of the National Committee for Clinical Laboratory Standards for filamentous fungi M 38 A. The starting inoculum was 1–5 × 10^4 CFU/mL in accordance with the Clinical and Laboratory Standards Institute (CLSI, formerly the National Committee for Clinical Laboratory Standards [NCCLS]) (M27-A3 document for yeasts, and M38-A2 document for filamentous fungi).
(§4) Microtiter plates were incubated at 30 °C for Aspergillus and Fusarium, and 22 °C for B. cinerea in a moist and dark chamber. MIC values were recorded after 48 h for Aspergillus and Fusarium spp., and after 72 h for B. cinerea, according to the fungal growth control. TDM and CPZ were used as positive controls (12.5–50 μg/mL). Stock solutions were two-fold diluted with RPMI from 1000 to 0.98 μg/mL (final volume equal to 100 μL), and a final DMSO concentration ≤ 1%. An inoculum suspension (100 μL) was added to each well with the exception of the sterility control. Endpoints were defined as the lowest compound concentration resulting in total growth inhibition (MIC100) compared to the growth in control wells. MICs values ≤ 50 μg/mL were considered of interest. The assay was carried out in triplicate.

[2] = test system: A. terreus (M16C); experiment: as above; format: cell-based, Aspergillus terreus; conditions: 48 h; for MIC100 (complete growth inhibition): Aspergillus terreus, read-out: Fungicidal activity MIC100, AT, A. terreus, 30 °C, total growth inhibition
Protocol: as §1, §2, §3, §4

[3] = test system: Fusarium oxysporum (M15-Pa); experiment: as above; format: cell-based; conditions: 30 °C, 48 h, total growth inhibition; for MIC100 (minimum concentration for complete growth inhibition): Fusarium oxysporum, F. oxysporum, read-out: Fungicidal activity MIC100, F
Protocol: as §1, §2, §3, §4

[4] = test system: Aspergillus fumigatus (ATTC 26934); experiment: as above; format: cell-based; conditions: A. fumigatus, 30 °C, 48 h, total growth inhibition; for Minimum inhibitory concentration (MIC100): Aspergillus fumigatus, read-out: Fungicidal activity MIC100, AF
Protocol: as §1, §2, §3, §4

[5] = test system: A. japonicus (M15C); experiment: as above; format: cell-based, Aspergillus japonicus; conditions: 48 h; for MIC: read-out: Fungicidal activity MIC100, AJ; for Fungicidal activity MIC100, AJ: A. japonicus, 30 °C, total growth inhibition
Protocol: as §1, §2, §3, §4

[6] = Cytotoxicity, neutral red uptake assay; format: cell-based, human; conditions: human
Protocol: (§5) The cytotoxic effect of the compounds, expressed as cell viability, was assessed on a permanent fibroblast cell line derived from human lung (MRC-5) (ATCC CCL-171). MRC-5 fibroblasts were grown as monolayers in minimum essential Eagle medium (MEM) with Earle’s salts, 2 mM l-glutamine and 2.2 g/L sodium bicarbonate, supplemented with 10% heat inactivated fetal bovine serum (FBS), 100 IU/mL penicillin and 100 µg/mL streptomycin in a humidified incubator with 5% CO2 in the air at 37 °C. Cell passage was maintained between 10 and 16. The medium was changed every 2 days.
(§6) Confluent cultures of MRC-5 fibroblasts were treated with medium containing the compounds at concentrations ranging from 0 to 1000 µM. For comparison purposes, the commercial antifungals CPZ and TDM were used as references, the products were first dissolved in DMSO and then in MEM, supplemented with 2% FBS. The final content of DMSO in the test medium and controls was 1%. Cells were exposed for 24 h to the test medium with or without the compound (control). Each concentration was tested in quadruplicate together with the control, and repeated three times in separate experiments. At the end of the incubation, the neutral red uptake (NRU) assay was carried out. To calculate the IC50 values (concentration that produces a 50% inhibitory effect on the evaluated parameter), the results were transformed to percentage of controls and the IC50 values were graphically obtained from the dose–response curves.

[7] = test system: A. ustus (PN-S4); experiment: In vitro antifungal activity, broth microdilution (MIC100); format: cell-based, Aspergillus ustus; conditions: 30 °C, 48 h, total growth inhibition; for MIC100 (complete growth inhibition): Aspergillus ustus, read-out: Fungicidal activity MIC100, AU
Protocol: as §1, §2, §3, §4

[8] = test system: A. niger (ATCC 9029); experiment: as above; format: cell-based, Aspergillus niger; conditions: 48 h, total growth inhibition; for MIC100 (complete growth inhibition): Aspergillus niger, ATCC9029, 30 °C, read-out: Fungicidal activity MIC100, AN; for Fungicidal activity MIC100, AN: 30 °C
Protocol: as §1, §2, §3, §4

[9] = test system: human lung fibroblasts MRC-5; experiment: Cytotoxicity, neutral red uptake assay; format: cell-based
Protocol: as §5, §6

[10] = Botrytis cinerea, B. cinerea, 72 h, read-out: Fungicidal activity MIC100, BC
[11] = Botrytis cinerea, B. cinerea, molar conversion of the µg/mL value, read-out: MIC100 against B. cinerea expressed

SMILES	Fungicidal activity MIC100, BC ([1]; B. cinerea, 72 h) [µg/mL]	MFC ([1]; Botrytis cinerea, 72 h, read-out: Fungicidal activity MIC100, BC) [µg/mL]	MIC ([1]; Botrytis cinerea, read-out: MIC100 against B. cinerea expressed in µM) [µM]	MIC100 (complete growth inhibition) [2] [µg/mL]	MIC100 (minimum concentration for complete growth inhibition) [3] [µg/mL]	Minimum inhibitory concentration (MIC100) [4] [µg/mL]	MIC [5] [µg/mL]	IC50 at 24 h [6] [µM]	MIC100 (complete growth inhibition) [7] [µg/mL]	MIC100 (complete growth inhibition) [8] [µg/mL]	MIC100 (complete growth inhibition) [1, 10] [µg/mL]	MIC [1, 11] [µM]	Fungicidal activity MIC100, F [3] [µg/mL]	Fungicidal activity MIC100, AJ [5] [µg/mL]	Fungicidal activity MIC100, AU [7] [µg/mL]	Fungicidal activity MIC100, AN [8] [µg/mL]	Fungicidal activity MIC100, AT ([2]; A. terreus, 30 °C, total growth inhibition) [µg/mL]	Fungicidal activity MIC100, AF [4] [µg/mL]	IC50 [9] [µM]	IC50 at 24 h ([6]; MRC-5 fibroblasts, 24 h exposure, neutral red uptake, ± SD, read-out: Cytotoxicity IC50) [µM]
CC(C)(C)C(=O)C(Oc1ccc(-c2ccccc2)cc1)n1cncn1 (centres unmarked) [Compound 1, 1-(Biphenyl-4-yloxy)-3,3-dimethyl-1-(1H-1,2,4-triazol-1-yl)butan-2-one]	10 ± 0.7	10 (≈ 29.8 µM)	29.8 (≈ 10 µg/mL)	≥ 100	≥ 100	80 ± 2.5 (≈ 239 µM)	≥ 100	389 ± 23.5	50 ± 1.2 (≈ 149 µM)	50 ± 1.7 (≈ 149 µM)	–	–	–	–	–	–	–	–	–	–
CC(C)(C)C(=O)C(Oc1ccc(-c2ccc(F)cc2)cc1)n1cncn1 (centres unmarked) [Compound 2]	–	–	–	≥ 100	≥ 100	≥ 100	≥ 100	90 ± 4.3	≥ 100	≥ 100	≥ 100	–	–	–	–	–	–	–	–	–
CC(C1CC1)C(O)(Cn1cncn1)c1ccc(-c2ccccc2)cc1 (centres unmarked) [Compound 3, 2-(Biphenyl-4-yl)-3-cyclopropyl-1-(1H-1,2,4-triazol-1-yl)butan-2-ol]	25 ± 1.4	–	–	≥ 100	5	≥ 100	12.5 (≈ 37.5 µM)	118 ± 9.4	6.25 (≈ 18.7 µM)	3.12 (≈ 9.36 µM)	25 (≈ 75 µM)	75 (≈ 25 µg/mL)	5 ± 0.4	12.5 ± 0.8	6.25 ± 0.3	3.12 ± 0.3	–	–	–	–
COc1ccc(-c2ccc(C(O)(Cn3cncn3)C(C)C3CC3)cc2)cc1 (centres unmarked) [Compound 5, 3-Cyclopropyl-2-(4'-methoxy-[1,1'-biphenyl]-4-yl)-1-(1H-1,2,4-triazol-1-yl)butan-2-ol]	–	–	–	≥ 100	≥ 100	≥ 100	≥ 100	732 ± 29.3	≥ 100	6.25 (≈ 17.2 µM)	≥ 100	–	–	–	–	6.25 ± 0.4	–	–	–	–
CC(C1CC1)C(O)(Cn1cncn1)c1ccc(-c2ccc([N+](=O)[O-])cc2)cc1 (centres unmarked) [Compound 6, 3-Cyclopropyl-2-(4'-nitro-[1,1'-biphenyl]-4-yl)-1-(1H-1,2,4-triazol-1-yl)butan-2-ol]	–	–	–	≥ 100	≥ 100	≥ 100	≥ 100	–	≥ 100	≥ 100	≥ 100	–	–	–	–	–	–	–	–	–
CC(C1CC1)C(O)(Cn1cncn1)c1ccc(-c2ccc3ccccc3c2)cc1 (centres unmarked) [Compound 7]	–	–	–	≥ 100	≥ 100	≥ 100	≥ 100	49.1 ± 3.4	6.25 (≈ 16.3 µM)	≥ 100	≥ 100	–	–	–	6.25 ± 0.3	–	–	–	–	–
c1nc[nH]n1 [Compound 8, 1H-1,2,4-Triazole]	–	–	–	–	–	–	–	–	–	–	–	–	≥ 100	≥ 100	≥ 100	≥ 100	≥ 100	≥ 100	> 1000	–
CC(C)(C)C(=O)C(Oc1ccc(Cl)cc1)n1cncn1 (centres unmarked) [TDM, 1-(4-chlorofenoxy)-3,3-dimethyl-1-(1H-1,2,4-triazol-1-yl)butan-2-one, reference compound]	80 ± 2.2	–	–	> 100	≥ 100	80 (≈ 272 µM)	≥ 100	–	80 ± 2.6 (≈ 272 µM)	≥ 100	80 (≈ 272 µM)	274 (≈ 80.5 µg/mL)	–	–	–	–	–	80 ± 2.4	–	248 ± 12.4
C[C@@H](c1ncncc1F)[C@](O)(Cn1cncn1)c1ccc(F)cc1F [VOR, voriconazole, reference compound]	–	–	–	6.25 ± 0.8 (≈ 17.9 µM)	< 0.75	< 0.75	< 0.75	–	1.25 (≈ 3.58 µM)	1.25 ± 0.4 (≈ 3.58 µM)	< 0.75	–	–	–	1.25 ± 0.5	–	–	–	–	–
